{
  "source": "patent US12383545B1",
  "about": "“Treatment of migraine” (priority 2018, dated 2025)",
  "system": "Bilirubin Total",
  "test": "Example 5: postbaseline hepatic laboratory parameter values of clinical interest, Bilirubin Total",
  "assay_type": "in vivo, human",
  "conditions": "safety population",
  "excerpt": "This study consisted of a 4-week screening and baseline period and a 12-week double-blind treatment period, which was followed by a 4-week safety follow-up period. Total study duration is 20-weeks.\nTo be randomized, eligible patients had to be 18 to 75 years of age (inclusive), have a history of migraine with or without aura for at least 1 year consistent with a diagnosis according to the International Classification of Headache Disorders criteria, 3rd edition, beta version, have experienced 4 to 14 migraine/probable migraine headache days and <15 headache days in the 28-day baseline period. Patients who had clinically significant hematologic, endocrine, cardiovascular, cerebrovascular, pulmonary, renal, hepatic, gastrointestinal, or neurologic disease were excluded from the study.\nA total of 834 patients were randomized to double-blind treatment (ITT population), and 825 patients took at least 1 dose of double-blind IP (safety population). […] The primary efficacy variable was the change from baseline in mean monthly migraine/probable migraine headache days across the 12-week treatment period. The secondary efficacy variables were the change from baseline in mean monthly headache days across the 12-week treatment period, proportion of patients with at least a 50% reduction in mean monthly migraine/probable migraine headache days across the 12-week treatment period, and the change from baseline in mean monthly acute medication use days across the 12-week treatment period.",
  "data": [
    {"smiles": "C[C@@H]1[C@H](c2c(F)ccc(F)c2F)C[C@H](NC(=O)c2cnc3c(c2)C[C@@]2(C3)C(=O)Nc3ncccc32)C(=O)N1CC(F)(F)F", "note": "[atogepant]", "values": [
      {"measurement": "Participants with postbaseline Bilirubin Total (umol/L) >=1 * ULN, (%)", "setting": "Atogepant 10 mg QD (N = 93)", "value": "(3.3) %"},
      {"measurement": "Participants with postbaseline Bilirubin Total (umol/L) >=1 * ULN, n/N1", "setting": "Atogepant 10 mg QD (N = 93)", "value": "3/92"},
      {"measurement": "Participants with postbaseline Bilirubin Total (umol/L) >=1.5 * ULN, (%)", "setting": "Atogepant 10 mg QD (N = 93)", "value": "(1.1) %"},
      {"measurement": "Participants with postbaseline Bilirubin Total (umol/L) >=1.5 * ULN, n/N1", "setting": "Atogepant 10 mg QD (N = 93)", "value": "1/92"},
      {"measurement": "Participants with postbaseline Bilirubin Total (umol/L) >=2 * ULN, n/N1", "setting": "Atogepant 10 mg QD (N = 93)", "value": 0},
      {"measurement": "Participants with postbaseline Bilirubin Total (umol/L) >=3 * ULN, n/N1", "setting": "Atogepant 10 mg QD (N = 93)", "value": 0},
      {"measurement": "Participants with postbaseline Bilirubin Total (umol/L) >=5 * ULN, n/N1", "setting": "Atogepant 10 mg QD (N = 93)", "value": 0},
      {"measurement": "Participants with postbaseline Bilirubin Total (umol/L) >=10 * ULN, n/N1", "setting": "Atogepant 10 mg QD (N = 93)", "value": 0},
      {"measurement": "Participants with postbaseline Bilirubin Total (umol/L) >=20 * ULN, n/N1", "setting": "Atogepant 10 mg QD (N = 93)", "value": 0},
      {"measurement": "Participants with postbaseline Bilirubin Total (umol/L) >=1 * ULN, (%)", "setting": "Atogepant 30 mg BID (N = 86)", "value": "(3.6) %"},
      {"measurement": "Participants with postbaseline Bilirubin Total (umol/L) >=1 * ULN, n/N1", "setting": "Atogepant 30 mg BID (N = 86)", "value": "3/84"},
      {"measurement": "Participants with postbaseline Bilirubin Total (umol/L) >=1.5 * ULN, (%)", "setting": "Atogepant 30 mg BID (N = 86)", "value": "(1.2) %"},
      {"measurement": "Participants with postbaseline Bilirubin Total (umol/L) >=1.5 * ULN, n/N1", "setting": "Atogepant 30 mg BID (N = 86)", "value": "1/84"},
      {"measurement": "Participants with postbaseline Bilirubin Total (umol/L) >=2 * ULN, n/N1", "setting": "Atogepant 30 mg BID (N = 86)", "value": 0},
      {"measurement": "Participants with postbaseline Bilirubin Total (umol/L) >=3 * ULN, n/N1", "setting": "Atogepant 30 mg BID (N = 86)", "value": 0},
      {"measurement": "Participants with postbaseline Bilirubin Total (umol/L) >=5 * ULN, n/N1", "setting": "Atogepant 30 mg BID (N = 86)", "value": 0},
      {"measurement": "Participants with postbaseline Bilirubin Total (umol/L) >=10 * ULN, n/N1", "setting": "Atogepant 30 mg BID (N = 86)", "value": 0},
      {"measurement": "Participants with postbaseline Bilirubin Total (umol/L) >=20 * ULN, n/N1", "setting": "Atogepant 30 mg BID (N = 86)", "value": 0},
      {"measurement": "Participants with postbaseline Bilirubin Total (umol/L) >=1 * ULN, (%)", "setting": "Atogepant 30 mg QD (N = 183)", "value": "(8.4) %"},
      {"measurement": "Participants with postbaseline Bilirubin Total (umol/L) >=1 * ULN, n/N1", "setting": "Atogepant 30 mg QD (N = 183)", "value": "15/179"},
      {"measurement": "Participants with postbaseline Bilirubin Total (umol/L) >=1.5 * ULN, (%)", "setting": "Atogepant 30 mg QD (N = 183)", "value": "(1.1) %"},
      {"measurement": "Participants with postbaseline Bilirubin Total (umol/L) >=1.5 * ULN, n/N1", "setting": "Atogepant 30 mg QD (N = 183)", "value": "2/179"},
      {"measurement": "Participants with postbaseline Bilirubin Total (umol/L) >=2 * ULN, n/N1", "setting": "Atogepant 30 mg QD (N = 183)", "value": 0},
      {"measurement": "Participants with postbaseline Bilirubin Total (umol/L) >=3 * ULN, n/N1", "setting": "Atogepant 30 mg QD (N = 183)", "value": 0},
      {"measurement": "Participants with postbaseline Bilirubin Total (umol/L) >=5 * ULN, n/N1", "setting": "Atogepant 30 mg QD (N = 183)", "value": 0},
      {"measurement": "Participants with postbaseline Bilirubin Total (umol/L) >=10 * ULN, n/N1", "setting": "Atogepant 30 mg QD (N = 183)", "value": 0},
      {"measurement": "Participants with postbaseline Bilirubin Total (umol/L) >=20 * ULN, n/N1", "setting": "Atogepant 30 mg QD (N = 183)", "value": 0},
      {"measurement": "Participants with postbaseline Bilirubin Total (umol/L) >=1 * ULN, (%)", "setting": "Atogepant 60 mg BID (N = 91)", "value": "(1.1) %"},
      {"measurement": "Participants with postbaseline Bilirubin Total (umol/L) >=1 * ULN, n/N1", "setting": "Atogepant 60 mg BID (N = 91)", "value": "1/88"},
      {"measurement": "Participants with postbaseline Bilirubin Total (umol/L) >=1.5 * ULN, n/N1", "setting": "Atogepant 60 mg BID (N = 91)", "value": 0},
      {"measurement": "Participants with postbaseline Bilirubin Total (umol/L) >=2 * ULN, n/N1", "setting": "Atogepant 60 mg BID (N = 91)", "value": 0},
      {"measurement": "Participants with postbaseline Bilirubin Total (umol/L) >=3 * ULN, n/N1", "setting": "Atogepant 60 mg BID (N = 91)", "value": 0},
      {"measurement": "Participants with postbaseline Bilirubin Total (umol/L) >=5 * ULN, n/N1", "setting": "Atogepant 60 mg BID (N = 91)", "value": 0},
      {"measurement": "Participants with postbaseline Bilirubin Total (umol/L) >=10 * ULN, n/N1", "setting": "Atogepant 60 mg BID (N = 91)", "value": 0},
      {"measurement": "Participants with postbaseline Bilirubin Total (umol/L) >=20 * ULN, n/N1", "setting": "Atogepant 60 mg BID (N = 91)", "value": 0},
      {"measurement": "Participants with postbaseline Bilirubin Total (umol/L) >=1 * ULN, (%)", "setting": "Atogepant 60 mg QD (N = 186)", "value": "(4.4) %"},
      {"measurement": "Participants with postbaseline Bilirubin Total (umol/L) >=1 * ULN, n/N1", "setting": "Atogepant 60 mg QD (N = 186)", "value": "8/181"},
      {"measurement": "Participants with postbaseline Bilirubin Total (umol/L) >=1.5 * ULN, (%)", "setting": "Atogepant 60 mg QD (N = 186)", "value": "(1.1) %"},
      {"measurement": "Participants with postbaseline Bilirubin Total (umol/L) >=1.5 * ULN, n/N1", "setting": "Atogepant 60 mg QD (N = 186)", "value": "2/181"},
      {"measurement": "Participants with postbaseline Bilirubin Total (umol/L) >=2 * ULN, n/N1", "setting": "Atogepant 60 mg QD (N = 186)", "value": 0},
      {"measurement": "Participants with postbaseline Bilirubin Total (umol/L) >=3 * ULN, n/N1", "setting": "Atogepant 60 mg QD (N = 186)", "value": 0},
      {"measurement": "Participants with postbaseline Bilirubin Total (umol/L) >=5 * ULN, n/N1", "setting": "Atogepant 60 mg QD (N = 186)", "value": 0},
      {"measurement": "Participants with postbaseline Bilirubin Total (umol/L) >=10 * ULN, n/N1", "setting": "Atogepant 60 mg QD (N = 186)", "value": 0},
      {"measurement": "Participants with postbaseline Bilirubin Total (umol/L) >=20 * ULN, n/N1", "setting": "Atogepant 60 mg QD (N = 186)", "value": 0}
    ]}
  ]
}
